In ChEMBL document CHEMBL4304804, “Synthesis and biological evaluation of calycanthaceous alkaloid analogs” (Bioorg Med Chem, 2019):
Converted amounts (≈) assume the structure as drawn. The source made the active and inactive calls. No cut-off for these calls is given here.

Key:
Verticillium dahliae [1] = assay: Antifungal activity against Verticillium dahliae assessed as reduction in fungal cell growth incubated for 48 hrs by serial dilution method; assay type: functional
[2] = system: Fusarium oxysporum f. sp. vasinfectum; assay: Antifungal activity against Fusarium oxysporum sp. vasinfectum assessed as reduction in fungal cell growth incubated for 48 hrs by serial dilution method; assay type: functional
Cytospora = assay: Antifungal activity against Cytospora juglandis assessed as reduction in fungal cell growth incubated for 48 hrs by serial dilution method; assay type: functional
Aspergillus flavus = assay: Antifungal activity against Aspergillus flavus assessed as reduction in fungal cell growth incubated for 48 hrs by serial dilution method; assay type: functional
Penicillium citrinum = assay: Antifungal activity against Penicillium citrinum assessed as reduction in fungal cell growth incubated for 48 hrs by serial dilution method; assay type: functional
Fusarium oxysporum = assay: Antifungal activity against Fusarium oxysporum assessed as reduction in fungal cell growth incubated for 48 hrs by serial dilution method; assay type: functional
[3] = system: Colletotrichum orbiculare; assay: Antifungal activity against Colletotrichum orbiculare assessed as reduction in fungal cell growth incubated for 48 hrs by serial dilution method; assay type: functional
Aspergillus niger = assay: Antifungal activity against Aspergillus niger assessed as reduction in fungal cell growth incubated for 48 hrs by serial dilution method; assay type: functional
Curvularia lunata [4] = assay: Antifungal activity against Curvularia lunata assessed as reduction in fungal cell growth incubated for 48 hrs by serial dilution method; assay type: functional
Escherichia coli = assay: Antibacterial activity against Escherichia coli assessed as reduction in bacterial cell growth incubated for 24 hrs by filter paper assay; assay type: functional
Pseudomonas aeruginosa = assay: Antibacterial activity against Pseudomonas aeruginosa assessed as reduction in bacterial cell growth incubated for 24 hrs by filter paper assay; assay type: functional
Ralstonia solanacearum = assay: Antibacterial activity against Ralstonia solanacearum assessed as reduction in bacterial cell growth incubated for 24 hrs by filter paper assay; assay type: functional
Bacillus cereus = assay: Antibacterial activity against Bacillus cereus assessed as reduction in bacterial cell growth incubated for 24 hrs by filter paper assay; assay type: functional
Staphylococcus aureus = assay: Antibacterial activity against Staphylococcus aureus assessed as reduction in bacterial cell growth incubated for 24 hrs by filter paper assay; assay type: functional
Candida = assay: Antifungal activity against […] assessed as reduction in fungal cell growth incubated for 48 hrs by serial dilution method; assay type: functional
Cryptococcus neoformans = assay: Antifungal activity against Cryptococcus neoformans assessed as reduction in fungal cell growth incubated for 48 hrs by serial dilution method; assay type: functional
Candida tropicalis = assay: Antifungal activity against Candida tropicalis assessed as reduction in fungal cell growth incubated for 48 hrs by serial dilution method; assay type: functional
Acetylcholinesterase = Acetylcholinesterase (Electrophorus electricus, UniProt O42275); assay: Inhibition of electric eel AChE by Ellman's colorimetry
Acetylcholinesterase, sequence (O42275 whole entry): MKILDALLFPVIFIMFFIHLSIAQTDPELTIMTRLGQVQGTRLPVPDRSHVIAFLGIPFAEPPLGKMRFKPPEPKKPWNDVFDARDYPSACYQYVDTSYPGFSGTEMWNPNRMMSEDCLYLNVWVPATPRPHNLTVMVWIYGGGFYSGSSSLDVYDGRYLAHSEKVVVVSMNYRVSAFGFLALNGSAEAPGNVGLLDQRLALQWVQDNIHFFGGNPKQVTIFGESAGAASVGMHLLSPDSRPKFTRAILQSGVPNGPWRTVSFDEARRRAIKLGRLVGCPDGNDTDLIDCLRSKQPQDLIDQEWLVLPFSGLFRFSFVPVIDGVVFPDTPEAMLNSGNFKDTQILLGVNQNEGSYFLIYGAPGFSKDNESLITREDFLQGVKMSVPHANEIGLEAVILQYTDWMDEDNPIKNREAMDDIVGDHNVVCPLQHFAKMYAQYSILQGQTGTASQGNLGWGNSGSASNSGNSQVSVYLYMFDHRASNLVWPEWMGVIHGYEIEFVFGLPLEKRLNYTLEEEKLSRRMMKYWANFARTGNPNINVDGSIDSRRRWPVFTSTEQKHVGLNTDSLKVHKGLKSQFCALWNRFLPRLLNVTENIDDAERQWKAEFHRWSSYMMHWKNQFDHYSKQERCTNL

[5] = target: Acetylcholinesterase (Electrophorus electricus) (UniProt O42275); assay: Inhibition of electric eel AChE by at 1 mg/ml Ellman's colorimetry relative to control
Acetylcholinesterase (Electrophorus electricus), sequence (O42275 24-633 limits assumed): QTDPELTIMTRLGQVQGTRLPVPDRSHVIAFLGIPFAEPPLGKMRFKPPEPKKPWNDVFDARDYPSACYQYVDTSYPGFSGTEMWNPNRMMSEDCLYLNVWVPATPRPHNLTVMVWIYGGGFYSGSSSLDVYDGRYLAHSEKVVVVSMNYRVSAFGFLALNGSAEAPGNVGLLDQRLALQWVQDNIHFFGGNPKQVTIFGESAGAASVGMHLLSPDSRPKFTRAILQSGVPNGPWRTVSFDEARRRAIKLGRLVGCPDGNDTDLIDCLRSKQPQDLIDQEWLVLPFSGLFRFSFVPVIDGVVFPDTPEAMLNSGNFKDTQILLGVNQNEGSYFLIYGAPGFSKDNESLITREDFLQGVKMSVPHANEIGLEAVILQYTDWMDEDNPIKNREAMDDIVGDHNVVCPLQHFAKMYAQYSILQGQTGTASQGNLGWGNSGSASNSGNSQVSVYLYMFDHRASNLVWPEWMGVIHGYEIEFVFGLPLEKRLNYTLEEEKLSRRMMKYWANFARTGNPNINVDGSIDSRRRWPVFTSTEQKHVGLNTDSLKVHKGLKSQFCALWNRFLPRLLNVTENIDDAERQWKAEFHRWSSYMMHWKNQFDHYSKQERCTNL

Curvularia lunata [6] = assay: Antifungal activity against Curvularia lunata assessed as reduction in fungal spore germination at 125 ug/ml relative to control; assay type: functional
Verticillium dahliae [7] = assay: Antifungal activity against Verticillium dahliae assessed as reduction in fungal cell growth at 31.25 ug/ml incubated for 48 hrs by serial dilution method relative to control; assay type: functional
Verticillium dahliae [8] = assay: Antifungal activity against Verticillium dahliae assessed as reduction in fungal cell growth at 62.5 ug/ml incubated for 48 hrs by serial dilution method relative to control; assay type: functional
Verticillium dahliae [9] = assay: Antifungal activity against Verticillium dahliae assessed as reduction in fungal cell growth at 125 ug/ml incubated for 48 hrs by serial dilution method relative to control; assay type: functional
Verticillium dahliae [10] = assay: Antifungal activity against Verticillium dahliae assessed as reduction in fungal cell growth at 250 ug/ml incubated for 48 hrs by serial dilution method relative to control; assay type: functional

| Structure (SMILES) | MIC (Verticillium dahliae [1]) | MIC [2] | MIC (Cytospora) | MIC (Aspergillus flavus) | MIC (Penicillium citrinum) | MIC (Fusarium oxysporum) | MIC [3] | MIC (Aspergillus niger) | MIC (Curvularia lunata [4]) | MIC (Escherichia coli) | MIC (Pseudomonas aeruginosa) | MIC (Ralstonia solanacearum) | MIC (Bacillus cereus) | MIC (Staphylococcus aureus) | MIC (Candida) | MIC (Cryptococcus neoformans) | MIC (Candida tropicalis) | IC50 (Acetylcholinesterase) | inhibition [5] | further results |
| --- | --- | --- | --- | --- | --- | --- | --- | --- | --- | --- | --- | --- | --- | --- | --- | --- | --- | --- | --- | --- |
| CCCCCC(=O)N1CCCC2(O)c3ccccc3N(C)C12 (stereo not given) | 125 µg/mL (≈ 413 µM) | 250 µg/mL (≈ 827 µM) | 125 µg/mL (≈ 413 µM) | inactive | inactive | 250 µg/mL (≈ 827 µM) | 250 µg/mL (≈ 827 µM) | 250 µg/mL (≈ 827 µM) | 250 µg/mL (≈ 827 µM) | 250 µg/mL (≈ 827 µM) | 250 µg/mL (≈ 827 µM) | 125 µg/mL (≈ 413 µM) | inactive | 125 µg/mL (≈ 413 µM) | inactive | 250 µg/mL (≈ 827 µM) | inactive | 7.57 µM | > 80% | – |
| Cc1ccccc1CN1c2ccccc2C2(Cc3ccccc3C)CCN(S(=O)(=O)c3ccccc3)C12 (stereo not given) | 125 µg/mL (≈ 246 µM) | 250 µg/mL (≈ 491 µM) | 250 µg/mL (≈ 491 µM) | 250 µg/mL (≈ 491 µM) | inactive | 250 µg/mL (≈ 491 µM) | 250 µg/mL (≈ 491 µM) | 250 µg/mL (≈ 491 µM) | inactive | inactive | inactive | inactive | 125 µg/mL (≈ 246 µM) | inactive | 250 µg/mL (≈ 491 µM) | inactive | inactive | 0.275 µM | > 80% | inhibition (Curvularia lunata [6]): Active |
| Cc1cccc(CN2c3ccccc3C3(Cc4cccc(C)c4)CCN(S(=O)(=O)c4ccccc4)C23)c1 (stereo not given) | 31.2 µg/mL (≈ 61.4 µM) | 250 µg/mL (≈ 491 µM) | 250 µg/mL (≈ 491 µM) | 250 µg/mL (≈ 491 µM) | inactive | 250 µg/mL (≈ 491 µM) | 250 µg/mL (≈ 491 µM) | 250 µg/mL (≈ 491 µM) | inactive | 250 µg/mL (≈ 491 µM) | 125 µg/mL (≈ 246 µM) | inactive | 125 µg/mL (≈ 246 µM) | inactive | 250 µg/mL (≈ 491 µM) | inactive | 125 µg/mL (≈ 246 µM) | 2.81 µM | > 80% | – |
| CCCCCCCC(=O)N1CCC2(Cc3ccccc3C)c3ccccc3N(Cc3ccccc3C)C12 (stereo not given) | 31.2 µg/mL (≈ 63.2 µM) | 250 µg/mL (≈ 505 µM) | 125 µg/mL (≈ 253 µM) | 250 µg/mL (≈ 505 µM) | 250 µg/mL (≈ 505 µM) | 125 µg/mL (≈ 253 µM) | 250 µg/mL (≈ 505 µM) | 250 µg/mL (≈ 505 µM) | 125 µg/mL (≈ 253 µM) | 125 µg/mL (≈ 253 µM) | 125 µg/mL (≈ 253 µM) | 62.5 µg/mL (≈ 126 µM) | 62.5 µg/mL (≈ 126 µM) | 125 µg/mL (≈ 253 µM) | 31.2 µg/mL (≈ 63.2 µM) | 62.5 µg/mL (≈ 126 µM) | 125 µg/mL (≈ 253 µM) | 16.5 µM | – | inhibition at 31.25 µg/mL (Verticillium dahliae [7]): 46.2%; inhibition at 62.5 µg/mL (Verticillium dahliae [8]): 47%; inhibition at 125 µg/mL (Verticillium dahliae [9]): 63.4%; inhibition at 250 µg/mL (Verticillium dahliae [10]): 67.7% |
| Cc1ccc(S(=O)(=O)N2CCC3(Cc4ccccc4C)c4ccccc4N(Cc4ccccc4C)C23)cc1 (stereo not given) | 62.5 µg/mL (≈ 120 µM) | 250 µg/mL (≈ 478 µM) | 250 µg/mL (≈ 478 µM) | 250 µg/mL (≈ 478 µM) | inactive | 250 µg/mL (≈ 478 µM) | 250 µg/mL (≈ 478 µM) | 250 µg/mL (≈ 478 µM) | inactive | 250 µg/mL (≈ 478 µM) | inactive | 250 µg/mL (≈ 478 µM) | inactive | 250 µg/mL (≈ 478 µM) | 250 µg/mL (≈ 478 µM) | inactive | 250 µg/mL (≈ 478 µM) | 0.21 µM | > 80% | – |
| Cc1ccccc1CN1c2ccccc2C2(Cc3ccccc3C)CCN(C(=O)c3ccccc3C)C12 (stereo not given) | 250 µg/mL (≈ 514 µM) | 250 µg/mL (≈ 514 µM) | 250 µg/mL (≈ 514 µM) | 250 µg/mL (≈ 514 µM) | 250 µg/mL (≈ 514 µM) | 250 µg/mL (≈ 514 µM) | inactive | 125 µg/mL (≈ 257 µM) | 62.5 µg/mL (≈ 128 µM) | inactive | inactive | 125 µg/mL (≈ 257 µM) | 250 µg/mL (≈ 514 µM) | 250 µg/mL (≈ 514 µM) | 250 µg/mL (≈ 514 µM) | inactive | 250 µg/mL (≈ 514 µM) | 229 µM | – | – |
| Cc1cccc(CN2c3ccccc3C3(Cc4cccc(C)c4)CCN(C(=O)COc4ccccc4)C23)c1 (stereo not given) | 250 µg/mL (≈ 497 µM) | 250 µg/mL (≈ 497 µM) | 125 µg/mL (≈ 249 µM) | 250 µg/mL (≈ 497 µM) | 250 µg/mL (≈ 497 µM) | 250 µg/mL (≈ 497 µM) | 250 µg/mL (≈ 497 µM) | 250 µg/mL (≈ 497 µM) | inactive | inactive | inactive | inactive | 250 µg/mL (≈ 497 µM) | inactive | 250 µg/mL (≈ 497 µM) | inactive | 125 µg/mL (≈ 249 µM) | 6.25 µM | – | – |
